# Data reported in ChEMBL document CHEMBL1201862, “PubChem BioAssay data set” (2004).
# Calls of active or inactive are those of the source. For most assays here, no stated cut-off is given here; in the data, actives have a measured EC50 and inactives only a lower limit.
# Tests used:
# [1] = test system: Streptococcus sp. 'group A'; assay: Streptococcus pyogenes SK(-)GAS viability under kanamycin – luminescence, BacTiterGlo, confirmation, counter-screen for streptokinase expression inhibitor project, dose response (AID 1900); format: functional, organism-based
# Streptokinase A = target: T1, Streptokinase A (Streptococcus pyogenes serotype M1, UniProt P10520); assay: viability-normalized secreted streptokinase activity reduction – plasminogen activation absorbance, OD405, dose response (AID 1914); format: functional, Streptococcus pyogenes M1 GAS;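 further: secreted streptokinase activity via plasminogen activation per viability signal from cell pellet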
# T1 sequence (P10520 whole entry): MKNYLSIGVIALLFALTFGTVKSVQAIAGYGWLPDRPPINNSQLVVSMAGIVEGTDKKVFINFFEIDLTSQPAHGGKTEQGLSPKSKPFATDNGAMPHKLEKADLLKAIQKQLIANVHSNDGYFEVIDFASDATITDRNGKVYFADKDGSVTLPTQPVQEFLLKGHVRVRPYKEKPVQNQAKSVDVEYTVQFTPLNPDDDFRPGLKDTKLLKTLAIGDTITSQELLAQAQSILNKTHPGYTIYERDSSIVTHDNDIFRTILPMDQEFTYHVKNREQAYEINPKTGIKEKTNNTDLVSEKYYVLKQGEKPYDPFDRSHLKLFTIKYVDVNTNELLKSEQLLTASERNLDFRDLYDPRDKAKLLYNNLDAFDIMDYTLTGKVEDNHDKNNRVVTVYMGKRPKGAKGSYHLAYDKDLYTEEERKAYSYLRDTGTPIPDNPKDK
# [2] = Trypanosoma cruzi growth suppression in host cells – NIH3T3 host cells, beta-gal luminescence, confirmation (AID 2044); format: functional, cell-based;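 further: intracellular parasites grown in NIH/3T3 mouse fibroblasts as host cells; luminescent beta-galactosidase reporter signal from transgenic T. cruzi replicating inside host cells; inhibitors lower the luminescence signal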
# [3] = NIH3T3 cell viability loss – ATP luminescence, mouse fibroblasts, counter-screen, dose response (AID 2010); format: functional, cell-based;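 further: cells exposed to compound for about 90 hours before reading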
# Streptococcus = assay: GAS UMAA2166 growth inhibition – luminescence, BacTiterGlo, counter-screen for streptokinase expression inhibitor project, dose response (AID 1915); format: functional, organism-based;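 further: potency for reduction of bacterial viability or growth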
# [4] = target: T2, Heat shock factor protein 1 (Mus musculus, UniProt P38532); assay: enhancement of HSF1-driven luciferase signal – cell-based, NIH3T3, luminescence, dose retest, confirmation (AID 435004); format: functional;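 further: stress induced by proteasome inhibitor MG132 added 30 min after compound; luciferase reporter driven by HSF1 response element in NIH3T3 cells; actives raise luminescence as potentiators of the MG132 stress response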
# T2 sequence (P38532 whole entry): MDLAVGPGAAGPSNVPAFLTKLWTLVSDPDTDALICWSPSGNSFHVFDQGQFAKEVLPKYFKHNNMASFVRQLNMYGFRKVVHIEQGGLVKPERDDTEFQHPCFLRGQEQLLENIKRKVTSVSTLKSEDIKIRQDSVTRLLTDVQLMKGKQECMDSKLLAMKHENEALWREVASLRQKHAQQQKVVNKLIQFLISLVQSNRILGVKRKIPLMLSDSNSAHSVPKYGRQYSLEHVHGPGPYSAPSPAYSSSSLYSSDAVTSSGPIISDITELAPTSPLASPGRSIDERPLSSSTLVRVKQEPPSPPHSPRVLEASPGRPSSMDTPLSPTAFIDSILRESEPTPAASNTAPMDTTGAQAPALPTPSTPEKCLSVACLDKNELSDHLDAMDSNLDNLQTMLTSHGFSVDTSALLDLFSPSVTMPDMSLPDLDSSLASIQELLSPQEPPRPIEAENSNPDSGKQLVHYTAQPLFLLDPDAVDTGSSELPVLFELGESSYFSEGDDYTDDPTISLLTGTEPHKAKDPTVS
# Paired box protein Pax-8 = Paired box protein Pax-8 (Homo sapiens, UniProt Q06710); assay: PAX8 transcriptional activity inhibition in RMG-I – RMG-I cells, luciferase, cherry-pick, dose response (AID 687027); format: functional, cell-based;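 further: luciferase reporter driven by Pax8 target thyroperoxidase promoter measured by SteadyGlo luminescence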
# Cytochrome P450 3A4 = Cytochrome P450 3A4 (Homo sapiens, UniProt P08684);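 further: CYP3A4 tested as one member of a cytochrome P450 panel screen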
# [5] = NIH-3T3 fibroblast cytotoxicity, dose response, cytotoxicity control, cell-based, fluorescence, Alamar Blue, secondary assay (AID 2327); format: functional;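 further: NIH-3T3 mouse fibroblasts cultured with fluconazole at 8 µg/mL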
# [6] = fluconazole-exposed Candida albicans growth modulators – fluorescence, retest, confirmation (AID 2467); format: functional, cell-based
# [7] = target: Glyceraldehyde-3-phosphate dehydrogenase (Homo sapiens, UniProt P04406)
# SN12K1 = assay: cells; format: functional; settings: Homo sapiens
# P388 = assay: cells; format: functional; settings: Mus musculus;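 further: compound exposure lasted 48 hours before growth was measured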
# [8] = luciferase reporter signal suppression in cells – H4 neuroglioma cells, luminescence, dose response (AID 1990); format: functional, cell-based
# [9] = Luminescence Cell-Based Dose Response HTS to Identify Inhibitors of 5'UTR Stem-Loop Driven Prion Protein mRNA Translation in H4 Neuroglioblastoma Cells. [Related pubchem assays: 1827 (Project Summary), 1813 (Primary HTS)]; format: functional
# [10] = alpha-synuclein stem-loop luciferase translation blockers – H4 neuroglioma cells, luminescence, confirmation (AID 1988); format: functional, cell-based
# [11] = reduction of Shn3 3'UTR-driven luciferase in osteoblasts – cell-based, Clone20 osteoblasts, firefly luciferase, cherry-picked, dose response (AID 624132); format: functional;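 further: firefly luciferase luminescence from reporter carrying the Shn3 3'UTR in osteoblasts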
# [12] = non-specific 3'UTR reporter inhibition in Clone20-Shn3RL – cell-based, Renilla luciferase, cherry-picked, counter-screen for Shn3 inhibitor project, dose response (AID 624133); format: functional
# Sequence of Cytochrome P450 3A4 (P08684 whole entry): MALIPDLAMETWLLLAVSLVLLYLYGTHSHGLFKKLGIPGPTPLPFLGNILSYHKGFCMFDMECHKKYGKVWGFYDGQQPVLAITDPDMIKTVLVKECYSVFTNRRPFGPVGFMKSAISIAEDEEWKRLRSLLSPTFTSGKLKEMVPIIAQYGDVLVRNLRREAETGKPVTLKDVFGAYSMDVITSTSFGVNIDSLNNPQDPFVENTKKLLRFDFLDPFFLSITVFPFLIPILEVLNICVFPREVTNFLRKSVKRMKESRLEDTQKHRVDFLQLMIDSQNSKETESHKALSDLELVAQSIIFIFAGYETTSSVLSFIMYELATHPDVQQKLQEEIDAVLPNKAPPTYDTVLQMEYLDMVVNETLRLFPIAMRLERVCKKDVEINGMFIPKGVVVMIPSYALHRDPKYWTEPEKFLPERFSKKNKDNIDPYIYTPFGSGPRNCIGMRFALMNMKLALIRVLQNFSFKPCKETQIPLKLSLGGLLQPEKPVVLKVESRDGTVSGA
# Sequence of Glyceraldehyde-3-phosphate dehydrogenase (P04406 whole entry): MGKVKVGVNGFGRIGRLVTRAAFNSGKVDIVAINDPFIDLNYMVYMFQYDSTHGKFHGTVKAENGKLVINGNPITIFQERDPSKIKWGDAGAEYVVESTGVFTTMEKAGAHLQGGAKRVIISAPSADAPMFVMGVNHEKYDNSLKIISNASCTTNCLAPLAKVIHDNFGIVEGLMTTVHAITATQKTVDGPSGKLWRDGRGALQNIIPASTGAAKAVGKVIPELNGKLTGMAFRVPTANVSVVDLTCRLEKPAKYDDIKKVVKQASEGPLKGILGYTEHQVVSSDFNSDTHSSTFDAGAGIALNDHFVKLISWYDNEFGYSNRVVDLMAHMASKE
# Sequence of Paired box protein Pax-8 (Q06710 whole entry): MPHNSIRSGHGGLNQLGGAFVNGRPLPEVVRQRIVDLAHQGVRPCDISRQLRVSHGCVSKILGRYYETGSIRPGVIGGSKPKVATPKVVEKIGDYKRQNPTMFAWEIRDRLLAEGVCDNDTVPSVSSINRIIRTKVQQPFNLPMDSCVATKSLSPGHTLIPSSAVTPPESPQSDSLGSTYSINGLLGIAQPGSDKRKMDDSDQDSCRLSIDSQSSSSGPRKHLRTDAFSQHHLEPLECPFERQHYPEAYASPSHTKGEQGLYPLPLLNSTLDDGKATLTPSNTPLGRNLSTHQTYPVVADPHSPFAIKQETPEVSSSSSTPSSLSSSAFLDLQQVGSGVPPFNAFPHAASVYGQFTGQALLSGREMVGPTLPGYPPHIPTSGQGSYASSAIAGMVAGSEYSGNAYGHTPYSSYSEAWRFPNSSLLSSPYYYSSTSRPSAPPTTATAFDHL
smiles,measurement,setting,value
O=C(/C=C/c1ccco1)Nc1nc(-c2ccccn2)cs1,EC50,[1],18 µM (active)
same,EC50,Streptokinase A,> 150 µM (not active)
same,EC50,[2],4.02 µM (active)
same,EC50,[3],11.6 µM (active)
same,EC50,Streptococcus,> 150 µM (not active)
COc1cccc(-c2nnc(SCc3nc4ccccc4[nH]3)n2N)c1,EC50,[4],> 260 µM (inactive)
CN1C[C@@H]2[C@H](c3ccccc31)[C@H](CO)N2Cc1ccccc1Cl,AC50,Paired box protein Pax-8,50.5 µM (active)
C[C@H](CO)N1C[C@H](C)[C@H](CN(C)Cc2ccc3c(c2)OCO3)OCCCC[C@H](C)Oc2ccc(NS(=O)(=O)c3ccc(Cl)cc3)cc2C1=O,AC50,Paired box protein Pax-8,9.86 µM (active)
COc1ccc(/N=C2/S/C(=C\c3ccc(C)s3)C(=O)N2CC(C)C)cc1,AC50,Cytochrome P450 3A4,5.01 µM (inconclusive)
N#Cc1ccccc1-c1cncnc1NCc1cccnc1,AC50,Cytochrome P450 3A4,0.2 µM (inconclusive)
CCOC(=O)N1CCN(C(=O)c2cnc3n(c2=O)CCS3)CC1,EC50,[4],> 260 µM (inactive)
Cc1ccc(-c2nnc(-c3ccc(NC(=O)c4cccs4)cc3)o2)cc1,AC50,Cytochrome P450 3A4,20 µM (inconclusive)
CCCc1nnc(N=C(S)Nc2ccccc2)s1,EC50,[5],> 160 µM (inactive)
same,EC50,[6],1.09 µM (active)
Cc1cccc(Sc2nc(-c3ccccc3)ncc2C(=O)O)c1,EC50,[5],104 µM (active)
same,EC50,[6],1.66 µM (active)
COc1ccc(CN(C)C[C@H]2Oc3ccc(NC(=O)Nc4ccc5c(c4)OCO5)cc3CC(=O)N([C@H](C)CO)C[C@H]2C)cc1,AC50,Paired box protein Pax-8,62.3 µM (active)
c1ccc(-c2csc3ncnc(N4CCc5ccccc5C4)c23)cc1,EC50,[1],5.31 µM (active)
same,EC50,Streptokinase A,4.83 µM (active)
same,EC50,Streptococcus,19.5 µM (active)
COc1ccc(C)cc1S(=O)(=O)Nc1cnc2ccccc2c1,IC50,[7],> 100 µM (not active)
NC1=NC(=O)C(Cc2cccc(Cl)c2Cl)S1 (stereo not drawn),EC50,[5],21.6 µM (inconclusive)
same,EC50,[6],> 38 µM (not active)
CCC(C)c1ccc(C2C3=C(O)c4ccccc4C3=Nc3nc(N)nc(O)c32)cc1 (stereo not drawn),EC50,[1],3.11 µM (active)
same,EC50,Streptokinase A,> 50 µM (not active)
same,EC50,Streptococcus,8.57 µM (active)
COc1cccc(C(=O)COC(=O)C(C)N2C(=O)C3C4C=CC(C4)C3C2=O)c1 (stereo not drawn),EC50,[4],> 260 µM (inactive)
CN(C)CCNC(=O)c1cccc2ccc(-c3ccc(O)cc3)nc12,GI50,SN12K1,0.637 µM (active)
Cc1ccc2c(O)nc(Nc3nc(C)cc(-c4ccccc4)n3)nc2c1,EC50,[1],7.26 µM (active)
same,EC50,Streptokinase A,> 150 µM (not active)
same,EC50,Streptococcus,5.49 µM (active)
CN(Cc1ccccc1)C(=O)c1cc(-c2ccc(Br)cc2)on1,EC50,[4],110 µM (active)
O=C(O)c1ccc(-c2nc(-c3ccc(Cl)c(Cl)c3)cs2)cc1,EC50,[5],> 160 µM (inactive)
same,EC50,[1],3.54 µM (active)
same,EC50,[6],3.35 µM (active)
same,EC50,Streptococcus,6.62 µM (active)
COC(=O)N1CCC2(CCCN(Cc3ccccc3OC)C2)CC1,AC50,Cytochrome P450 3A4,6.31 µM (inconclusive)
O=c1c(-c2ccccc2)nc2cnc(Nc3ccccc3)nc2n1C[C@H]1CCCO1,AC50,Cytochrome P450 3A4,12.6 µM (inconclusive)
C=C1C(=O)O[C@H]2[C@H]1[C@@H](OC(=O)C=C(C)C)CC1=C[C@@H](C[C@@]3(C)O[C@@H]23)OC1=O,GI50,SN12K1,6.46 µM (inactive)
same,GI50,P388,0.139 µM (active)
FC(F)(F)c1cccc(NC(=S)N2CCCC2)c1,EC50,[1],> 150 µM (not active)
same,EC50,Streptokinase A,> 150 µM (not active)
same,EC50,Streptococcus,> 150 µM (not active)
C=CCN(C(=O)CCc1ccccc1OC)c1nc(-c2ccc(S(C)(=O)=O)cc2)cs1,EC50,[2],1.93 µM (active)
same,EC50,[3],5.05 µM (active)
same,EC50,[4],> 260 µM (inactive)
S=C(Nc1ccc(Cl)cc1)Nc1ccc2c(c1)OCCO2,EC50,[5],> 150 µM (inactive)
same,EC50,[6],> 38 µM (not active)
COC(=O)c1cn(CCOc2ccc(C)cc2)c2ccccc12,EC50,[4],> 260 µM (inactive)
CCCCOc1ccc(-c2nc(/C=N/c3nccs3)c(O)o2)cc1,EC50,[4],> 260 µM (inactive)
O=C1CC(C(=O)Nc2ccc(O)c(C(=O)O)c2)C(c2ccccc2)O1 (stereo not drawn),IC50,[7],> 100 µM (not active)
CCn1nc(C)cc1C(=O)Sc1ccc(Cl)cc1Cl,EC50,[4],14.9 µM (active)
O=C(CN1C(=O)NC(Cc2c[nH]c3ccccc23)C1=O)Nc1cccc(S(=O)(=O)N2CCOCC2)c1 (stereo not drawn),EC50,[4],> 260 µM (inactive)
CC(=O)Nc1ncnc2c1c(-c1ccc(Cl)cc1)nn2C(C)(C)C,EC50,[5],36.2 µM (active)
same,EC50,[8],11.4 µM (active)
same,EC50,[9],13.3 µM (active)
same,EC50,[10],10.2 µM (active)
same,EC50,[6],1.15 µM (active)
same,EC50,[2],0.14 µM (active)
same,EC50,[3],2.66 µM (active)
COc1cccc(N2C(=O)C(Cl)=C(N3CCOCC3)C2=O)c1,IC50,[7],> 50 µM (inconclusive)
CN(C)c1ccc(CNc2ncnc3sccc23)cc1,EC50,[5],> 160 µM (inactive)
same,EC50,[6],2.63 µM (active)
C[C@H]1CC(C)(C)C[C@@](OCCN2CCCCC2)(c2ccccc2)C1,AC50,Cytochrome P450 3A4,3.16 µM (inconclusive)
Cc1ccc(-n2c(O)cc(=O)nc2SCC(=O)Nc2ccc3c4c(cccc24)CC3)cc1,EC50,[1],28.4 µM (active)
same,EC50,Streptokinase A,> 150 µM (not active)
same,EC50,Streptococcus,> 150 µM (not active)
Cc1ccc(N2NC(=O)/C(=C/c3c(C)c(C#N)c4nc5ccccc5n4c3O)C2=O)cc1C,IC50,[7],> 100 µM (not active)
C[C@@H]1CCCCO[C@H](CN(C)C(=O)c2ccccc2)[C@@H](C)CN([C@@H](C)CO)C(=O)c2cc(NC(=O)Nc3ccc(C(F)(F)F)cc3)ccc2O1,AC50,Paired box protein Pax-8,3.72 µM (active)
O=C(O)[C@@H]1[C@@H](C(=O)NCc2ccncc2)[C@@H]2C=C[C@@H]1O2,AC50,Cytochrome P450 3A4,3.98 µM (inconclusive)
CC(C)[C@H](NC(N)=O)C(=O)NNC(=O)COc1cccc(C(F)(F)F)c1,EC50,[4],> 260 µM (inactive)
CCOC(=O)N1CCN(CC(c2ccccc2)c2ccccc2)CC1,AC50,[11],14.1 µM (active)
same,AC50,[12],39.1 µM (active)
COc1ccc(C(=O)N2CC3(CC(c4ccc(Cl)cc4)=NO3)C[C@H]2C(=O)NCC(N)=O)cc1 (stereo partly drawn),AC50,Cytochrome P450 3A4,31.6 µM (inconclusive)
O=c1[nH]n2c(C(F)(F)F)cc(C3CC3)nc2c1N=Nc1ccccc1,EC50,[5],> 150 µM (inactive)
same,EC50,[6],1.05 µM (active)
O=C(CSc1ccc(Cl)cc1)Nc1nnc(-c2ccco2)o1,EC50,[5],> 160 µM (inconclusive)
same,EC50,[6],3.02 µM (active)
